Literature values as cited in US9421272B2, “Nanocarrier compositions and methods” (RUTGERS, THE STATE UNIVERSITY OF NEW JERSEY, priority 2009, dated 2016).
One block for each molecule: values may come before it.

Tests used:
[1] = target: T1, PepT1 (Homo sapiens, UniProt P46059); conditions: interaction between valacyclovir and PepT1
T1 sequence (P46059 1-708): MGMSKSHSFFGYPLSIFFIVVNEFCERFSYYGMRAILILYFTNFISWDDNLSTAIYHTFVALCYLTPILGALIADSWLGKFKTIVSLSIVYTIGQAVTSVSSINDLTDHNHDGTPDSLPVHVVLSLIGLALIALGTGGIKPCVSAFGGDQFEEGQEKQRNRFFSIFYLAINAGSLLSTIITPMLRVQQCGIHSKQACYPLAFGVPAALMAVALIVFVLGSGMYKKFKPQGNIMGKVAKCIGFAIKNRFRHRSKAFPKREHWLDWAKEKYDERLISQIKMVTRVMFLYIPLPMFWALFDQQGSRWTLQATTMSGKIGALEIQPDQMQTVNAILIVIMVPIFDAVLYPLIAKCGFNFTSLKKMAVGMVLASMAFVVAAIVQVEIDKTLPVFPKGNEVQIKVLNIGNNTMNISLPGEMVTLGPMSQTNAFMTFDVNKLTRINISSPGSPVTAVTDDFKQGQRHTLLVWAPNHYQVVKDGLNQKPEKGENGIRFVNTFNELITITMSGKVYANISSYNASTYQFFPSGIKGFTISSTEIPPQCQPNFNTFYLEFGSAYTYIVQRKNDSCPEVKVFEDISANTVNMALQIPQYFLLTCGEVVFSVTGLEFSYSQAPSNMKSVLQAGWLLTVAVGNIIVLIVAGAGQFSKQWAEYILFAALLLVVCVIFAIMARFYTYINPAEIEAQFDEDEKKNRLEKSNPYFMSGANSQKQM

[2] = disulfide bond; relative to cysteamine linker
[3] = compared to the counterpart with a 5 kDa linear PEG

increase in the bioavailability of acyclovir [1]: three to four-fold increase
Molecule: CC(C)[C@H](N)C(=O)OCCOCn1cnc2c(=O)[nH]c(N)nc21 [valacyclovir]

degradation rate, slower than the corresponding less hindered cysteamine linker [2]: about 100 times
Molecule: CC(C)(S)CN [1-amino-2-methyl-2-propanethiol]

B1: branched 10 kDa PEG to asparaginase: asparaginase bound to a branched 10 kDa PEG (conjugate, UniProt P00805 23-348, looked up)
L-asparaginase 2: LPNITILATGGTIAGGGDSATKSNYTVGKVGVENLVNAVPQLKDIANVKGEQVVNIGSQDMNDNVWLTLAKKINTDCDKTDGFVITHGTDTMEETAYFLDLTVKCDKPVVMVGAMRPSTSMSADGPFNLYNAVVTAADKASANRGVLVVMNDTVLDGRDVTKTNTTDVATFKSVNYGPLGYIHNGKIDYQRTPARKHTSDTPFDVSKLNELPKVGIVYNYANASDLPAKALVDAGYDGIVSAGVGNGNLYKSVFDTLATAAKTGTAVVRSSRVPTGATTQDAEVDDAKYGFVASGTLNPQKARVLLQLALTQTKDPQQIQQIFNQY
modifications: branched 10 kDa PEG
reduction of antigenicity [3]: 10 fold
